Earlier results, collected in US6413988B1, “Prucalopride oral solution” (Janssen Pharmaceutica N.V., priority 1999, dated 2002).

Experiments:
5-HT2A receptors = 5-HT2A receptors (Homo sapiens, UniProt P28223)
5-HT4 receptors = 5-HT4 receptors (Homo sapiens, UniProt Q13639)
5-HT4 receptors, sequence (Q13639 whole entry): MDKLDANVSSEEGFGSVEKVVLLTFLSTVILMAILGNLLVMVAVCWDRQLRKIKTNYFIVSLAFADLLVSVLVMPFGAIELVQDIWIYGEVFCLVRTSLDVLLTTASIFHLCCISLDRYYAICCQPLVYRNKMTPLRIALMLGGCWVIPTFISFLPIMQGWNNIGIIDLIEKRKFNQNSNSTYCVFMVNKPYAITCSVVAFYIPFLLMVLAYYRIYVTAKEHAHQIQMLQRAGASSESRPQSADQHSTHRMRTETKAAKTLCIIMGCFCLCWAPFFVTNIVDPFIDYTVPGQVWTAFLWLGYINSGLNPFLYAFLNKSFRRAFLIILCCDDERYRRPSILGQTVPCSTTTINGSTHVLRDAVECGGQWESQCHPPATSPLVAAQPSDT

5-HT2A receptors, sequence (P28223 whole entry): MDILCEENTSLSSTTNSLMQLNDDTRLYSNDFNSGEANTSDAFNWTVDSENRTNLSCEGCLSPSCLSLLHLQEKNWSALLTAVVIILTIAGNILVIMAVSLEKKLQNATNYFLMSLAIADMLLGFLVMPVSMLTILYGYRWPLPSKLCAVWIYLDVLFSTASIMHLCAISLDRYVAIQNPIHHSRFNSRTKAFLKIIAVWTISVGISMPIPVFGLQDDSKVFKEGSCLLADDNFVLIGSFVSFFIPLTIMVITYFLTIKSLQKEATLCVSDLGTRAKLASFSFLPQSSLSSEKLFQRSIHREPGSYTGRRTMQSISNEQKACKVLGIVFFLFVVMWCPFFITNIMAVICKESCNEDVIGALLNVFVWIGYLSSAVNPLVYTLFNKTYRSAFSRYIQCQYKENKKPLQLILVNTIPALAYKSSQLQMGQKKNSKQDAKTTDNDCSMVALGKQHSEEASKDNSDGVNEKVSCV

Q: Which “affinity for 5-HT3 receptors” value (5-HT3 receptors) does the source give for COCCCN1CCC(NC(=O)c2cc(Cl)c(N)c3c2OCC3)CC1 [Prucalopride, 4-amino-5-chloro-2,3-dihydro-N-[1-(3-methoxypropyl)-4-piperidinyl]-7-benzofuran-carboxamide] here?
A: no affinity

Q: What about the “affinity for 5-HT2A receptors” value (5-HT2A receptors) of the same compound?
A: no affinity

Q: And the “agonist of 5-HT4 receptors” value (5-HT4 receptors)?
A: potent and selective agonist

Q: And the “colonic motility and defecation” value (colon; in animals)?
A: stimulates colonic motility and defecation

Q: What about the “giant contractions in the colon” value (colon; propagated over the length of the colon as a peristaltic wave) of the same compound?
A: induces giant contractions in the colon
